Test results published in patent US11958861B2, “Spirocyclic lactams as JAK2 V617F inhibitors” (Incyte Corporation, priority 2021, dated 2024).
Structures can show the parent of a compound that is named as a salt.

Tests used:
[1] = target: T1, catalytic domain (JH1, amino acids 808-1132) of human JAK2 (Homo sapiens, UniProt O60674); test: JAK2 HTRF Enzyme Activity Assay; format: biochemical; settings: ATP 30 μM, read-out: ENZ 30UMATP
T1 construct: catalytic domain (JH1, amino acids 808-1132) of human JAK2; His (N); purchased BPS Bioscience 40450; host or cells: baculovirus expression system
T1 sequence (O60674 808-1132): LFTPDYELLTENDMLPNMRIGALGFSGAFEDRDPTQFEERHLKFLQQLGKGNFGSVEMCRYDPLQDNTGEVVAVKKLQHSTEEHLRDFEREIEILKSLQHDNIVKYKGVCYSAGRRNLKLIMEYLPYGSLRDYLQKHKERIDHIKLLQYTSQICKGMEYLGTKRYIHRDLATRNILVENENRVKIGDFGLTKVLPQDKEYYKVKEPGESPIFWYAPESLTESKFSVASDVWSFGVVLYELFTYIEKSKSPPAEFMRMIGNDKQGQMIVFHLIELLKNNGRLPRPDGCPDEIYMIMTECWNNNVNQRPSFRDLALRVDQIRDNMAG
Experimental: Example D. JAK2 HTRF Enzyme Activity Assay
JAK2 enzyme activity assays utilize catalytic domain (JH1, amino acids 808-1132) of human JAK2 expressed as N-terminal His-tagged protein in a baculovirus expression system (BPS Bioscience, Catalog #40450). The assays was conducted in black 384-well polystyrene plates in a final reaction volume of 20 μL. JAK2 (0.015 nM) was incubated with compounds (100 nL serially diluted in DMSO) in the presence of ATP (30 μM or 1 mM) and 500 nM Biotin-labeled […] (SEQ ID NO.: 1) peptide (BioSource International, custom synthesis) in assay buffer (50 mM Tris, pH=7.5, 10 mM MgCl2, 0.01% Brij-35, 0.1% BSA, 1 mM EGTA, 5% Glycerol and 5 mM DTT) for 60 minutes at 25° C. The reactions were stopped by the addition of 10 μL of detection buffer (50 mM Tris, pH 7.8, 0.5 mg/mL BSA, 150 mM NaCl), supplemented with EDTA, LANCE Eu-W1024 anti-phosphotyrosine (PY20), (PerkinElmer, Catalog #AD0067) and Streptavidin SureLight APC (PerkinElmer Catalog #CR130-100), for a final concentration of 15 mM, 1.5 nM and 75 nM, respectively. HTRF signals were read after 30 minutes incubation at room temperature on a PHERAstar FS plate reader (BMG LABTECH). Data was analyzed with IDBS XLfit and GraphPad Prism 5.0 software using a four parameter dose response curve to determine IC50 for each compound.

[2] = target: T2, catalytic domain (JH1, amino acids 826-1132) of human JAK2 (Homo sapiens, UniProt O60674); test: JAK2 LanthaScreen JH1 Binding Assay; settings: 2 hours at 25° C.
T2 construct: catalytic domain (JH1, amino acids 826-1132) of human JAK2; purchased Carna Biosciences 08-445-20N; host or cells: baculovirus expression system
T2 sequence (O60674 826-1132): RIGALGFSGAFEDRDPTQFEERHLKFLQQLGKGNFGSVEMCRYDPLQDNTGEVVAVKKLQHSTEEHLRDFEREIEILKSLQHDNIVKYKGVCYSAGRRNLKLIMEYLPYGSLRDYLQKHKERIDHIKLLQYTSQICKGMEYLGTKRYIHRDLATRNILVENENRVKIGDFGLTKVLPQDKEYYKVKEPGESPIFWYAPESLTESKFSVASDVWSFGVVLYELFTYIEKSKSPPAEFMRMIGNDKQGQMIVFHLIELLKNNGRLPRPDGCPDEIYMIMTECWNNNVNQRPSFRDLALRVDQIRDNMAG
Experimental: Example A. JAK2 LanthaScreen JH1 Binding Assay
JAK2 JH1 binding assay utilizes catalytic domain (JH1, amino acids 826-1132) of human JAK2 expressed as N-terminal FLAG-tagged, biotinylated protein in a baculovirus expression system (Carna Biosciences, Product #08-445-20N). The assay was conducted in black 384-well polystyrene plates in a final reaction volume of 20 μL. JAK2 JH1 (1.5 nM) was incubated with compounds (100 nL serially diluted in DMSO) in the presence of 50 nM Fluorescent JAK2-JH1 Tracer and 0.5 nM Streptavidin-Tb cryptate (Cisbio Part #610SATLB) in assay buffer (50 mM Tris, pH=7.5, 10 mM MgCl2, 0.01% Brij-35, 0.1% BSA, 1 mM EGTA, 5% Glycerol and 5 mM DTT). Non-specific binding was accessed in the presence of 2 mM ATP. After incubation for 2 hours at 25° C., LanthaScreen signals were read on a PHERAstar FS plate reader (BMG LABTECH). Data was analyzed with IDBS XLfit and GraphPad Prism 5.0 software using a four parameter dose response curve to determine IC50 for each compound.

[3] = target: T3, pseudo-kinase domain (JH2, amino-acids 536-812) of human V617F mutant JAK2 (Homo sapiens, UniProt O60674, F794H/V617F/W659A/W777A); test: JAK2 LanthaScreen JH2-V617F Binding Assay; settings: 1 hour at 25° C.
T3 construct: pseudo-kinase domain (JH2, amino-acids 536-812 with 3 surface mutations W659A, W777A, F794H); purchased BPS Bioscience 79498; host or cells: baculovirus expression system
T3 sequence (O60674 536-812 V617F/W659A/W777A/F794H): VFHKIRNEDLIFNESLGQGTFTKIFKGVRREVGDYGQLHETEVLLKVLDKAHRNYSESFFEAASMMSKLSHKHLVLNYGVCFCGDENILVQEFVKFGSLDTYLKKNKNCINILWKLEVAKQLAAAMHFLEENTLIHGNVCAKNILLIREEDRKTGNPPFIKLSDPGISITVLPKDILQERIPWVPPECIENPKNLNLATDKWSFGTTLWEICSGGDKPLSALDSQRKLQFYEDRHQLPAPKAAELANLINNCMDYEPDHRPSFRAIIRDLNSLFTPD
Experimental: Example C. JAK2 LanthaScreen JH2-V617F Binding Assay
(§1) JAK2 JH2-V617F binding assay utilizes pseudo-kinase domain (JH2, amino-acids 536-812 with 3 surface mutations W659A, W777A, F794H) of human V617F mutant JAK2 expressed as C-terminal His-Avi-tagged, biotinylated protein in a baculovirus expression system (BPS Bioscience, Catalog #79498). The assay was conducted in black 384-well polystyrene plates in a final reaction volume of 20 μL. JAK2 JH2-V617F (0.26 nM) was incubated with compounds (100 nL serially diluted in DMSO) in the presence of 50 nM Fluorescent JAK2-JH2 Tracer (MedChem Express Catalog #HY-102055) and 0.25 nM Streptavidin-Tb cryptate (Cisbio Part #610SATLB) in assay buffer (50 mM Tris, pH=7.5, 10 mM MgCl2, 0.01% Brij-35, 0.1% BSA, 1 mM EGTA, 5% Glycerol and 5 mM DTT). Non-specific binding was accessed in the presence of 2 mM ATP. After incubation for 1 hour at 25° C., LanthaScreen signals were read on a PHERAstar FS plate reader (BMG LABTECH). Data was analyzed with IDBS XLfit and GraphPad Prism 5.0 software using a four parameter dose response curve to determine IC50 for each compound.

[4] = target: T4, pseudo-kinase domain (JH2, amino-acids 536-812) of human Wild Type JAK2 (Homo sapiens, UniProt O60674, F794H/W659A/W777A); test: JAK2 LanthaScreen JH2-WT Binding Assay; settings: 1 hour at 25° C.
T4 construct: pseudo-kinase domain (JH2, amino-acids 536-812 with 3 surface mutations W659A, W777A, F794H); purchased BPS Bioscience 79463; host or cells: baculovirus expression system
T4 sequence (O60674 536-812 W659A/W777A/F794H): as the sequence (O60674 536-812 V617F/W659A/W777A/F794H) above, with F82V counted along it
Experimental: Example B. JAK2 LanthaScreen JH2-WT Binding Assay
as §1, with “JH2-WT” for “JH2-V617F”, “Wild Type” for “V617F mutant”, “#79463).” for “#79498).”, “JH2-WT (0.145” for “JH2-V617F (0.26”

| Compound | IC50 [1] [nM] | IC50 [2] [nM] | IC50 [3] [nM] | IC50 [4] [nM] |
| --- | --- | --- | --- | --- |
| CN1C(=O)C2(CCN(C(C(N)=O)c3ccc(F)cc3)CC2)c2c1cnc1[nH]c(-c3cnn(C)c3)c(-c3ccccc3)c21 (racemic) [Example 26, 2-(4-Fluorophenyl)-2-(6-methyl-2-(1-methyl-1H-pyrazol-4-yl)-7-oxo-1-phenyl-6,7-dihydro-3H-spiro[dipyrrolo[2,3-b:3′,2′-d]pyridine-8,4′-piperidin]-1′-yl)acetamide, trifluoroacetate salt] | ≤ 100 | 100 to 500 | ≤ 100 | ≤ 100 |
| CN1C(=O)C2(CCN(C3(CC#N)CCC3)CC2)c2c1cnc1[nH]c(C3=CCC(C(=O)N4CCOCC4)CC3)c(-c3ccc4c(cnn4C)c3)c21 (racemic) [Example 34, 2-(1-(6-Methyl-1-(1-methyl-1H-indazol-5-yl)-2-(4-(morpholine-4-carbonyl)cyclohex-1-en-1-yl)-7-oxo-6,7-dihydro-3H-spiro[dipyrrolo[2,3-b:3′,2′-d]pyridine-8,4′-piperidin]-1′-yl)cyclobutyl)acetonitrile, trifluoroacetate salt] | 500 to 1250 | 500 to 1250 | ≤ 100 | ≤ 100 |
| CN1C(=O)C2(CCN(C3(CC#N)CCC3)CC2)c2c1cnc1[nH]c(-c3cnn(C4CCOC4)c3)c(-c3ccc4c(cnn4C)c3)c21 (racemic) [Example 45, 2-(1-(6-Methyl-1-(1-methyl-1H-indazol-5-yl)-7-oxo-2-(1-(tetrahydrofuran-3-yl)-1H-pyrazol-4-yl)-6,7-dihydro-3H-spiro[dipyrrolo[2,3-b:3′,2′-d]pyridine-8,4′-piperidin]-1′-yl)cyclobutyl)acetonitrile, trifluoroacetate salt] | ≤ 100 | 100 to 500 | ≤ 100 | ≤ 100 |
| CN1C(=O)[C@]2(CC[C@@H](NS(=O)(=O)C3CC3)C2)c2c1cnc1[nH]c(-c3cnn(C)c3)c(-c3ccc4c(cnn4C)c3)c21 (racemic) [Example 55, trifluoroacetate salt] | 500 to 1250 | 1250 to 2500 | ≤ 100 | ≤ 100 |
| [2H]C([2H])([2H])n1ncc2cc(-c3c(-c4cnn(C)c4)[nH]c4ncc5c(c34)[C@@]3(CC[C@H](NS(=O)(=O)C4CC4)C3)C(=O)N5C)ccc21 (racemic) [Example 56, trifluoroacetate salt] | 1250 to 2500 | 1250 to 2500 | ≤ 100 | ≤ 100 |
| CCCC(=O)N1CCC2(CC1)CC1(C2)C(=O)N(C)c2cnc3[nH]c(C4=CCC(C(=O)N(C)C)CC4)c(-c4ccc5c(cnn5C)c4)c3c21 (racemic) [Example 63, 4-(1″-Butyryl-6-methyl-1-(1-methyl-1H-indazol-5-yl)-7-oxo-6,7-dihydro-3H-dispiro[dipyrrolo[2,3-b:3′,2′-d]pyridine-8,1′-cyclobutane-3′,4″-piperidin]-2-yl)-N,N-dimethylcyclohex-3-ene-1-carboxamide, trifluoroacetate salt] | > 2500 | > 2500 | ≤ 100 | ≤ 100 |
| CN1C(=O)C2(CCN(CC3(CC#N)CC3)C2)c2c1cnc1[nH]c(-c3ccc4c(c3)OCC(=O)N4)c(-c3ccc4c(cnn4C)c3)c21 (racemic) [Example 67, 2-(1-((6-Methyl-1-(1-methyl-1H-indazol-5-yl)-7-oxo-2-(3-oxo-3,4-dihydro-2H-benzo[b][1,4]oxazin-7-yl)-6,7-dihydro-3H-spiro[dipyrrolo[2,3-b:3′,2′-d]pyridine-8,3′-pyrrolidin]-1′-yl)methyl)cyclopropyl)acetonitrile, trifluoroacetate salt] | > 2500 | > 2500 | ≤ 100 | ≤ 100 |
| CN1C(=O)C2(CCN(CC3(CC#N)CC3)C2)c2c1cnc1[nH]c(-c3cnn4cccnc34)c(-c3ccc4c(cnn4C)c3)c21 (racemic) [Example 68, 2-(1-((6-Methyl-1-(1-methyl-1H-indazol-5-yl)-7-oxo-2-(pyrazolo[1,5-a]pyrimidin-3-yl)-6,7-dihydro-3H-spiro[dipyrrolo[2,3-b:3′,2′-d]pyridine-8,3′-pyrrolidin]-1′-yl)methyl)cyclopropyl)acetonitrile, trifluoroacetate salt] | > 2500 | > 2500 | ≤ 100 | ≤ 100 |
| CN1C(=O)C2(CCN(CC3(CC#N)CC3)C2)c2c1cnc1[nH]c(-c3cnn(Cc4ccc(C#N)cc4)c3)c(-c3ccc4c(cnn4C)c3)c21 (racemic) [Example 69, 4-((4-(1′-((1-(Cyanomethyl)cyclopropyl)methyl)-6-methyl-1-(1-methyl-1H-indazol-5-yl)-7-oxo-6,7-dihydro-3H-spiro[dipyrrolo[2,3-b:3′,2′-d]pyridine-8,3′-pyrrolidin]-2-yl)-1H-pyrazol-1-yl)methyl)benzonitrile, trifluoroacetate salt] | 500 to 1250 | 500 to 1250 | ≤ 100 | ≤ 100 |
| CN1C(=O)C2(CCN(CC3(CC#N)CC4(CCC4)C3)C2)c2c1cnc1[nH]c(-c3cnn(C)c3)c(-c3ccc4c(cnn4C)c3)c21 (racemic) [Example 70, 2-(2-((6-Methyl-1-(1-methyl-1H-indazol-5-yl)-2-(1-methyl-1H-pyrazol-4-yl)-7-oxo-6,7-dihydro-3H-spiro[dipyrrolo[2,3-b:3′,2′-d]pyridine-8,3′-pyrrolidin]-1′-yl)methyl)spiro[3.3]heptan-2-yl)acetonitrile] | > 2500 | > 2500 | ≤ 100 | ≤ 100 |
